According to patent publication US5508304A, “Glucagon antagonists and methods relating thereto” (ZymoGenetics, Inc., priority 1994, dated 1996):

Assays:
glucagon receptor = target: T1, glucagon receptor (Rattus norvegicus, UniProt P30082); assay: Adenylate cyclase assay: glucagon-stimulated cAMP production in liver plasma membranes (Amersham Scintillation Proximity Assay kit); format: biochemical; conditions: for cAMP response to glucagon, serial dilutions of test substance: fixed 5 nM glucagon stock, 5 μl per well; for inhibition of cAMP activity with increasing concentration of test substance (FIG. 7): fixed concentration of glucagon
T1 construct: Liver plasma membranes for use in adenylate cyclase assays were prepared; from tissue; host or cells: rat liver plasma membranes
T1 sequence (P30082 27-485): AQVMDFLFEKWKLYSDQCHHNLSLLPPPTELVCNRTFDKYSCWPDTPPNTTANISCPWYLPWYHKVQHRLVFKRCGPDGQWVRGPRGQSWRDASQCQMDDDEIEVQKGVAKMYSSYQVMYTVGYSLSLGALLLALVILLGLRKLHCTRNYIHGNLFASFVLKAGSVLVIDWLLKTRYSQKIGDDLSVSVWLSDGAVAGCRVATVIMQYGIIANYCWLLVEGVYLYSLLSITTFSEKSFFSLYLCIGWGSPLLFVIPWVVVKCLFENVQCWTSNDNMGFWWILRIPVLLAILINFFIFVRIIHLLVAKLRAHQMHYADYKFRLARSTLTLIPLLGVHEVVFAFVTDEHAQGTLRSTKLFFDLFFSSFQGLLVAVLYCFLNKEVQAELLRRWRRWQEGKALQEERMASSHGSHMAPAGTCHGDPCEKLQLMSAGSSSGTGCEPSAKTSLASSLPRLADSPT
Description: Liver plasma membranes for use in adenylate cyclase assays were prepared essentially as described by Neville et al. (Biochim. Biophys. Acta 154:540-552, 1968) as modified by Pohl (Methods in Receptor Research, Blecher (ed.), New York, pp. 160-164, 1976). Twenty rats were euthanized by decapitation, and the livers were removed and cooled to 4° C. After cooling, the livers were maintained at 4° C. during the membrane preparation. The approximate volume of the livers was determined. Three volumes of medium (1 mM NaHCO3, 0.5 mM CaCl2) were added to the livers, and the liver tissue was roughly minced with scissors. The minced tissue was divided into two parts, and each part was homogenized for thirty seconds in a Waring-type blender at full speed. After homogenization, the homogenates were each transferred to a sieve with a 1.5 mm pore size, and the homogenates were strained through the sieve. The straining procedure was repeated for each homogenate through a finer screen. The strained homogenates were combined, and medium was added to a final volume of one liter. The homogenate was further homogenized with a Dounce homogenizer using eight vigorous strokes of the loose pestle. The homogenates were filtered through four layers of cheesecloth. The strained homogenates were centrifuged at approximately 150×g in a swinging bucket rotor for 20 minutes at 4° C. The supernalant was discarded, and the precipitate was resuspended in 500 ml of medium and homogenized in a Dounce homogenizer with three strokes of the loose pestle. The centrifugation was repeated, and the resulting precipitate was resuspended in 250 ml of medium. The homogenate was centrifuged as described, and the precipitate was suspended in 50 to 100 ml of medium. The suspension was homogenized in a Dounce homogenizer with three strokes of the loose pestle. Sucrose from a 69% sucrose solution was added to the suspension to a final sucrose concentration of 44.0±0.1%. The solution was centrifuged in an ultracentrifuge at approximately 100,000×g for 150 minutes. The membranes were removed from the top of the tube with a spoon. The membranes were stored at -80° C.
Adenylate cyclase assays were carried out in the presence and absence of […] diluted in DMSO. Glucagon (Mallinkrodt Inc. St. Louis, Mo.) was dissolved in 10% acetic acid and lyophilized in 25-μg portions. The lyophilized glucagon was dissolved in 100 μl of 0.05M HCl and left for three minutes, after which the glucagon was serially diluted in buffer (2.5% human serum albumin (Grade 5, Sigma Chemical Co., St. Louis, Mo.) in 0.1M HEPES, 0.15M NaCl, pH 7.4) to final concentrations of between 0 and 100 nM. Aliquots of the membrane preparations were thawed and diluted with water to a protein concentration of approximately 3-5 mg/ml.
For each 96-well assay plate, triplicate samples were assayed in the presence and absence of 20 μM skyrin. […] Five microliters of 20 μM skyrin in DMSO or 5 μl of DMSO alone was added to each well. Fifty microliters of incubation mixture (0.1% human serum albumin (Grade 5, Sigma), 15 mM MgCl2, 1 mM ATP, 0.9 mM IBMX (3-isobutyl-1-methylxanthine, Sigma), 15 mM creatine phosphate, and 5 mg/ml creatine phosphokinase in 50 mM Tris-HCl (pH 7.4) was then added to each well. […]
The cAMP produced in each reaction was determined by assaying 10 μl of each sample using an Amersham Scintillation Proximity Assay kit (Amersham, Arlington Heights, Ill.). […]

[1] = Stark et al. 1978; cited from earlier work
[2] = target: T2, VIP-stimulated non-glucagon G protein-coupled receptors in liver membranes (Rattus norvegicus, UniProt P30083); assay: Adenylate cyclase assay with VIP in place of glucagon; format: biochemical; conditions: serial dilutions of VIP, with and without skyrin; FIG. 4
T2 construct: Liver plasma membranes for use in adenylate cyclase assays were prepared; from tissue; host or cells: rat liver plasma membranes
T2 sequence (P30083 31-459): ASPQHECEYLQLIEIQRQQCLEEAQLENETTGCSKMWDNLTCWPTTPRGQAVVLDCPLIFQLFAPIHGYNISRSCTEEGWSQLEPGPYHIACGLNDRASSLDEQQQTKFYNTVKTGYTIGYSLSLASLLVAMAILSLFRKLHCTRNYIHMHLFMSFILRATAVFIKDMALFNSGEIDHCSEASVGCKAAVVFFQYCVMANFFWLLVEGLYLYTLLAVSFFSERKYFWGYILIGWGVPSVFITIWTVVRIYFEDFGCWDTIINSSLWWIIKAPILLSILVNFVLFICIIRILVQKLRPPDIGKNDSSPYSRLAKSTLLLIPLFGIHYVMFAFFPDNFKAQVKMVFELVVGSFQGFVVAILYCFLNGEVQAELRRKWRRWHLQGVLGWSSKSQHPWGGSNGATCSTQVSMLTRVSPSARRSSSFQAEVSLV
Description: (§1) Liver plasma membranes for use in adenylate cyclase assays were prepared essentially as described by Neville et al. (Biochim. Biophys. Acta 154:540-552, 1968) as modified by Pohl (Methods in Receptor Research, Blecher (ed.), New York, pp. 160-164, 1976). Twenty rats were euthanized by decapitation, and the livers were removed and cooled to 4° C. After cooling, the livers were maintained at 4° C. during the membrane preparation. The approximate volume of the livers was determined. Three volumes of medium (1 mM NaHCO3, 0.5 mM CaCl2) were added to the livers, and the liver tissue was roughly minced with scissors. The minced tissue was divided into two parts, and each part was homogenized for thirty seconds in a Waring-type blender at full speed. After homogenization, the homogenates were each transferred to a sieve with a 1.5 mm pore size, and the homogenates were strained through the sieve. […]
(§2) The cAMP produced in each reaction was determined by assaying 10 μl of each sample using an Amersham Scintillation Proximity Assay kit (Amersham, Arlington Heights, Ill.).
(§3) The specificity of the skyrin antagonist activity was assessed by replacing the serial dilutions of glucagon with serial dilutions of vasoactive intestinal peptide (VIP; Sigma Chemical Co., St. Louis, Mo.), calcitonin gene-related peptide (CGRP), forskolin (Calbiochem, San Diego, Calif.) and GTP-γS. […]

[3] = target: T3, CGRP-stimulated non-glucagon G protein-coupled receptors in liver membranes (Rattus norvegicus, UniProt Q63118); assay: Adenylate cyclase assay with CGRP in place of glucagon; format: biochemical; conditions: serial dilutions of CGRP, with and without skyrin; FIG. 5
T3 construct: Liver plasma membranes for use in adenylate cyclase assays were prepared; from tissue; host or cells: rat liver plasma membranes
T3 sequence (Q63118 24-464): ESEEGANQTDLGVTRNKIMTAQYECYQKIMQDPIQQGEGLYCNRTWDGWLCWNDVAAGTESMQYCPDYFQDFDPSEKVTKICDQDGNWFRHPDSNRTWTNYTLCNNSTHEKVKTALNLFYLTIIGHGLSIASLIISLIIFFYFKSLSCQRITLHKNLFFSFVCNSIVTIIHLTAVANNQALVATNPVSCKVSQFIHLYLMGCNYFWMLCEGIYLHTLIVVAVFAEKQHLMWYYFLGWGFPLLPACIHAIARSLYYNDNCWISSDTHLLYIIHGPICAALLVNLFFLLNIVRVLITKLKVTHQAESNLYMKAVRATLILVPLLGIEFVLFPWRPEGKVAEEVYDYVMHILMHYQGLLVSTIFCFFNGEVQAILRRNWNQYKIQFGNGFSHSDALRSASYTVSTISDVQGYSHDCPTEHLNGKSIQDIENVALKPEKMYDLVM
T3 sequence (Q9JJ74 27-148 partner): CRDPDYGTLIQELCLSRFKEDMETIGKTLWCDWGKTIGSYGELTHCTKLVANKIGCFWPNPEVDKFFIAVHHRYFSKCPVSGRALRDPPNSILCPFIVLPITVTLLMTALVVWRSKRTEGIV
Description: as §1, §2, §3

[4] = test system: rat leukemia cell mitochondria; conditions: cited from earlier work
[5] = test system: GTPγS-stimulated cAMP production; assay: Adenylate cyclase assay with GTPγS, receptor-independent stimulation of cAMP production; format: biochemical, rat
Description: as §1, §2, §3

[6] = target: T4, glucagon binding to rat liver membranes (Rattus norvegicus, UniProt P30082); assay: 125I-glucagon binding to rat liver membranes; conditions: 20 μl of 56 μM skyrin vs DMSO; 30 min at 30° C.; FIG. 8
T4 construct: 0.2 mg of rat liver membranes in 20 μl in water; from tissue; host or cells: rat liver membranes
T4 sequence (P30082 27-485): as the sequence (P30082 27-485) above
Description: Glucagon binding to rat liver membranes in the presence and absence of skyrin was determined in this experiment. Reactions tubes were prepared, each of which contained 20 μl of serially diluted unlabeled glucagon from 10^-5 M to 10^-10 M, 100 μl of 2× binding buffer (100 mM HEPES, pH 7.6), 200 mM NaCl, 2 mM EDTA, 2.0% bovine serum albumin (BSA), 1.0 mg/ml of bacitracin (Sigma Chem. Co.), approximately 0.1 nmoles of ^125 I-glucagon (Amersham) in 10 mM acetic acid/0.5% BSA with a specific activity of 2000 Ci/mmole, 20 μl of 56 μM skyrin (dissolved and diluted in DMSO) or DMSO, and water to achieve a final volume of 180 μl. The reaction was initiated by the addition of 0.2 mg of rat liver membranes in 20 μl in water. The reactions were incubated for 30 minutes at 30° C. After incubation the tubes were centrifuged at high speed in a microfuge for 10 minutes at 4° C. The supernatants were discarded, and the radioactivity in the pellets was quantitated with a gamma-counter (the level of radioactivity in a sample indicated the total binding of glucagon to the rat liver membranes). […] Based on this experiment, it is believed that the glucagon antagonists of this invention, including skyrin and skyrin analogs, function as glucagon antagonists by interrupting postglucagon binding events.

[7] = test system: rice dwarf virus-RNA transcriptase; conditions: Yangai et al. 1976; cited from earlier work
rat liver mitochondria = conditions: cited from earlier work
[8] = test system: forskolin-stimulated cAMP production; assay: Adenylate cyclase assay with forskolin, receptor-independent stimulation of cAMP production; format: biochemical, rat; conditions: presence and absence of 0.02 mM skyrin
Description: as §1, §2, §3

Compound | cAMP response to glucagon, serial dilutions of test substance (glucagon receptor) | inhibition of cAMP activity with increasing concentration of test substance (FIG. 7) (glucagon receptor) | mutagenicity [1] | stimulation of cAMP production by VIP [2] | stimulation of cAMP production by CGRP [3] | uncoupling of oxidative phosphorylation [4] | cAMP response to glucagon (glucagon receptor; 20 μM skyrin in DMSO vs DMSO alone, glucagon 0-100 nM, FIG. 3) | cAMP levels produced by GTPγS ([5]; presence and absence of 0.02 mM skyrin) | GTPγS-stimulated cAMP levels (FIG. 6) ([5]; presence of 0.2 mM skyrin as printed) | binding of glucagon to rat liver membrane [6] | inhibition of rice dwarf virus-RNA transcriptase [7] | uncoupling of oxidative phosphorylation (rat liver mitochondria) | cAMP levels produced by forskolin [8]
Cc1cc(O)c2c(c1)C(=O)c1c(c(O)cc(O)c1-c1c(O)cc(O)c3c1C(=O)c1cc(CO)cc(O)c1C3=O)C2=O [oxyskyrine] | inhibited cAMP response to glucagon | increase in inhibition of cAMP activity | – | – | – | – | – | – | – | – | – | – | –
Cc1cc(O)c2c(c1)C(=O)c1c(c(O)cc(O)c1-c1c(O)cc(O)c3c1C(=O)c1cc(C)cc(O)c1C3=O)C2=O [skyrin] | inhibited cAMP response to glucagon | increase in inhibition of cAMP activity | non-mutagenic | did not affect the stimulation | did not affect the stimulation | uncouple oxidative phosphorylation | inhibited the cAMP response to glucagon | unaffected | uneffected | increased binding of glucagon | selectively inhibit | uncouple oxidative phosphorylation | unaffected
